Values joined by “and” are separate entries in the source; they are usually repeats but may differ in a detail not shown here. Identical values can stand only once.

Usually IC50 stands for the midpoint of a concentration-inhibition curve. Broadly, the viability, T/C is the result in the treated group divided by that in the control group, in per cent.

This experiment has as its system 435261-313-R-J1-PDC tumor spheroid viability. In words: Anticancer human tumor 435261-313-R-J1-PDC patient-derived colon adenocarcinoma cell line growth inhibition [PI3K]. The note with it: spheroids with HUVEC and MSC; for viability, T/C: stronger effect = lower value. A digest of the protocol:
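Complex 3D spheroids (cancer cells + endothelial HUVEC + mesenchymal stem cells); drug pairs of targeted agent x inavolisib/alpelisib/duvelisib/copanlisib; half-log series from ~Cmax, max 10 microM if Cmax unknown; endpoint viability.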

Where [1] appears, read: curve of first compound, second compound 0.0316 µM.
[2] abbreviates: curve of first compound, second compound 0.1 µM.
Where [3] appears, read: curve of first compound, second compound 0.316 µM.
The mark [4] stands for this setting: curve of first compound, second compound 1 µM.
Where [5] appears, read: second compound 0.0316 µM, first compound 0.000316 µM.
Setting [6] is: second compound 0.0316 µM, first compound 0.001 µM.
Where [7] appears, read: second compound 0.0316 µM, first compound 0.00316 µM.
[8] abbreviates: second compound 0.0316 µM, first compound 0.01 µM.
Setting [9] is: second compound 0.0316 µM, first compound 0.0316 µM.
Where [10] appears, read: second compound 0.0316 µM, first compound 0.1 µM.
Setting [11] is: second compound 0.1 µM, first compound 0.000316 µM.
Setting [12] is: second compound 0.1 µM, first compound 0.001 µM.
Where [13] appears, read: second compound 0.1 µM, first compound 0.00316 µM.
Where [14] appears, read: second compound 0.1 µM, first compound 0.01 µM.
The mark [15] stands for this setting: second compound 0.1 µM, first compound 0.0316 µM.
The mark [16] stands for this setting: second compound 0.1 µM, first compound 0.1 µM.
The mark [17] stands for this setting: second compound 0.316 µM, first compound 0.000316 µM.
Setting [18] is: second compound 0.316 µM, first compound 0.001 µM.
Where [19] appears, read: second compound 0.316 µM, first compound 0.00316 µM.
The mark [20] stands for this setting: second compound 0.316 µM, first compound 0.01 µM.
Setting [21] is: second compound 0.316 µM, first compound 0.0316 µM.
[22] abbreviates: second compound 0.316 µM, first compound 0.1 µM.
[23] abbreviates: second compound 1 µM, first compound 0.000316 µM.
Setting [24] is: second compound 1 µM, first compound 0.001 µM.
[25] abbreviates: second compound 1 µM, first compound 0.00316 µM.
Setting [26] is: second compound 1 µM, first compound 0.01 µM.
Setting [27] is: second compound 1 µM, first compound 0.0316 µM.
The mark [28] stands for this setting: second compound 1 µM, first compound 0.1 µM.
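Note: spheroids exposed to compounds for 7 days.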

As for `CC(=O)c1c(C)c2cnc(Nc3ccc(N4CCNCC4)cn3)nc2n(C2CCCC2)c1=O` + CC(Nc1ccc2c(c1)OCCn1cc(N3C(=O)OCC3C(F)F)nc1-2)C(N)=O, the IC50 was more than 0.1 µM (curve of first compound, second compound 0.00316 µM); more than 0.1 µM (curve of first compound, second compound 0.01 µM); 0.0695 µM under setting [1]; 0.000458 µM under setting [2]; less than 0.000316 µM under setting [3]; less than 0.000316 µM under setting [4]. Also, the viability, T/C is 78.8% (second compound 0.00316 µM, first compound 0.000316 µM); 91.4% (second compound 0.00316 µM, first compound 0.001 µM); 92.8% (second compound 0.00316 µM, first compound 0.00316 µM); 82.7% (second compound 0.00316 µM, first compound 0.01 µM); 84.2% (second compound 0.00316 µM, first compound 0.0316 µM); 59.2% (second compound 0.00316 µM, first compound 0.1 µM). The viability, T/C (second compound 0.01 µM, first compound 0.000316 µM) is 94.7%; the viability, T/C (second compound 0.01 µM, first compound 0.001 µM) is 83.6%; the viability, T/C (second compound 0.01 µM, first compound 0.00316 µM) is 100%; the viability, T/C (second compound 0.01 µM, first compound 0.01 µM) was 91.7%; the viability, T/C (second compound 0.01 µM, first compound 0.0316 µM) was 87.5%; the viability, T/C (second compound 0.01 µM, first compound 0.1 µM) is 68.6%. The viability, T/C by setting is: under setting [5], 64.2%; under setting [6], 66.7%; under setting [7], 76.9%; under setting [8], 86.2%; under setting [9], 69.1%; under setting [10], 40.4%. For the same compound, the viability, T/C reads like this: under setting [11], 49.2%; under setting [12], 52.7%; under setting [13], 38.8%; under setting [14], 32.5%; under setting [15], 33.6%; under setting [16], 23.6%. Further, the viability, T/C under setting [17] is 21.7%; the viability, T/C under setting [18] was 22%; the viability, T/C under setting [19] is 19.3%; the viability, T/C under setting [20] was 21.5%; the viability, T/C under setting [21] was 20.5%; the viability, T/C under setting [22] is 18.1%. The viability, T/C is 16.8% under setting [23]; 17.1% under setting [24]; 17.7% under setting [25]; 16.5% under setting [26]; 18.2% under setting [27]; 12.2% under setting [28].

Regarding `CC(C)n1nc(-c2ccc3oc(N)nc3c2)c2c(N)ncnc21`, the viability, T/C reads like this: (compound 0.000316 µM) 75.7% and 66.3%; (compound 0.001 µM) 119% and 65.3%; (compound 0.00316 µM) 86.6% and 58.6%; (compound 0.01 µM) 67.3% and 48.3%; (compound 0.0316 µM) 60.8% and 46.7%; (compound 0.1 µM) 18.7% and 12.7%. Further, the IC50 (curve of compound) is 0.038 µM and 0.0144 µM.

`Cn1nccc1Nc1nccc(-c2ccn(C(CO)c3ccc(Cl)c(F)c3)c(=O)c2)n1` (stereo not given): the viability, T/C by setting is: (compound 0.316 µM) 68.2% [middle of 4 runs]; (compound 1 µM) 45.7% [middle of 4 runs]; (compound 3.16 µM) 30.4% [middle of 4 runs]; (compound 10 µM) 18.4% [middle of 4 runs].

Consider `Cn1ncnc1[C@H]1c2n[nH]c(=O)c3cc(F)cc(c23)N[C@@H]1c1ccc(F)cc1` + Cc1nc(NC(=O)N2CCCC2C(N)=O)sc1-c1ccnc(C(C)(C)C(F)(F)F)c1, for which the IC50 under setting [1] was more than 0.1 µM; the concentration for half-maximal inhibition (IC50) under setting [2] was more than 0.1 µM; the IC50 under setting [3] is 0.00618 µM; the IC50 under setting [4] was less than 0.000316 µM; the IC50 (curve of first compound, second compound 3.16 µM) is less than 0.000316 µM; the IC50 (curve of first compound, second compound 10 µM) was less than 0.000316 µM. Besides, the viability, T/C runs as follows: under setting [5], 81.6%; under setting [6], 65%; under setting [7], 79.8%; under setting [8], 77.1%; under setting [9], 79.1%; under setting [10], 66.4%. Further, the viability, T/C runs as follows: under setting [11], 63%; under setting [12], 93.9%; under setting [13], 65.5%; under setting [14], 64.8%; under setting [15], 66.4%; under setting [16], 56.3%. The viability, T/C reads like this: under setting [17], 35.8%; under setting [18], 62.8%; under setting [19], 49.4%; under setting [20], 59.8%; under setting [21], 39.4%; under setting [22], 36.6%. Moreover, the viability, T/C is 36.5% under setting [23]; 29.8% under setting [24]; 24.6% under setting [25]; 30.5% under setting [26]; 26.9% under setting [27]; 22.8% under setting [28]. The viability, T/C is, setting by setting: (second compound 3.16 µM, first compound 0.000316 µM) 16.4%; (second compound 3.16 µM, first compound 0.001 µM) 21.4%; (second compound 3.16 µM, first compound 0.00316 µM) 17.5%; (second compound 3.16 µM, first compound 0.01 µM) 18.5%; (second compound 3.16 µM, first compound 0.0316 µM) 18.4%; (second compound 3.16 µM, first compound 0.1 µM) 16.7%. For the same compound, the viability, T/C was 10.5% (second compound 10 µM, first compound 0.000316 µM); 9.23% (second compound 10 µM, first compound 0.001 µM); 7.91% (second compound 10 µM, first compound 0.00316 µM); 9.55% (second compound 10 µM, first compound 0.01 µM); 9% (second compound 10 µM, first compound 0.0316 µM); 7.58% (second compound 10 µM, first compound 0.1 µM).

For `CC1(C)CCC(Nc2ncc(C(F)(F)F)c(-c3c[nH]c4c(P(C)(C)=O)c(C#N)ccc34)n2)CN1` (stereo not given), the viability, T/C reads like this: (compound 0.0316 µM) 68.8% [middle of 4 runs]; (compound 0.1 µM) 59.7% [middle of 4 runs]; (compound 1 µM) 54.3% [middle of 4 runs]; (compound 3.16 µM) 51.3% [middle of 4 runs]; (compound 10 µM) 1.48% [middle of 4 runs].

The values above are taken from PubChem BioAssay AID1963976 (Molecular Pharmacology Branch, DTP, NCI, 2024).
